Assay results reported in patent publication US20220324835A1 (Nurix Therapeutics, Inc., priority 2018, published 2022).

Legend:
[1] = biological target: T1, Cbl-b (Homo sapiens, UniProt Q13191); experiment: Cbl-b activity assay (Cbl-b inhibition assay), TR-FRET of Cbl-b interaction with UbcH5B-Ub; format: biochemical; details: assay buffer with 100 mM NaCl, 60 nM Src kinase; read-out: Cbl-b activity IC50
Method in brief: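 UbcH5B (C85K) conjugated to N-terminally Bodipy-Fluorescein-labeled ubiquitin served as the fluorescent partner. After compound preincubation, Src kinase (60 nM) with 1 mM ATP and 5 mM MgCl2 (final) was added for 1.5 h, followed by a further 1 h incubation. Some values were obtained with 50 mM NaCl and 30 nM Src.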

[2] = biological target: T1, Cbl-b; experiment: Cbl-b inhibition assay (Cbl-b activity assay, FRET, Biological Example 1; 100 mM NaCl, 60 nM Src kinase); format: biochemical; details: upper bound stated in text lists; read-out: IC50 values in the Cbl-b inhibition assay of Biological Example 1
Method in brief: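 TR-FRET assay using N-terminal biotinylated Avi-tagged Cbl-b bound to streptavidin-terbium, Src kinase for Cbl-b phosphorylation, and UbcH5B irreversibly conjugated to Bodipy-Fluorescein-ubiquitin. Phosphorylated Cbl-b binds UbcH5B-Ub, bringing the fluorophores together; inhibition is read as loss of FRET signal.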

[3] = tested on: T-cell; experiment: CD25 cell surface staining on T-cells co-stimulated with anti-CD3 and anti-CD28 antibody (Biological Example 2); format: cell-based, human; details: Homo sapiens, T-cell
Method in brief: (§1)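 T-cells were stimulated with anti-CD3 antibody alone or with anti-CD28 antibody, in the presence or absence of Cbl-b inhibitor. IL-2 secretion or CD25 surface staining was measured, and values expressed as fold over the uninhibited baseline […].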

[4] = tested on: T-cell; experiment: IL-2 secretion from T-cells co-stimulated with anti-CD3 and anti-CD28 antibody (Biological Example 2); format: cell-based, human; details: Homo sapiens, T-cell
Method in brief: as §1

[5] = tested on: T-cell; experiment: CD25 cell surface staining on T-cells stimulated with anti-CD3 antibody alone (Biological Example 2); format: cell-based, human; details: T-cell
[6] = read-out: CD25 staining, Anti-CD3/Anti-CD28 stimulation, fold change over baseline
[7] = read-out: IL-2 secretion, Anti-CD3/Anti-CD28 stimulation, fold change over baseline
[8] = 0.3 μM Cbl-b inhibitor, fold change over baseline (anti-CD3/anti-CD28 stimulated T-cells without inhibitor), read-out: CD25 staining Anti-CD3/Anti-CD28 stimulation
[9] = 1 μM Cbl-b inhibitor, fold change over baseline (anti-CD3/anti-CD28 stimulated T-cells without inhibitor), read-out: CD25 staining Anti-CD3/Anti-CD28 stimulation
[10] = 0.3 μM Cbl-b inhibitor, fold change over baseline (anti-CD3/anti-CD28 stimulated T-cells without inhibitor), read-out: IL-2 secretion Anti-CD3/Anti-CD28 stimulation
[11] = 1 μM Cbl-b inhibitor, fold change over baseline (anti-CD3/anti-CD28 stimulated T-cells without inhibitor), read-out: IL-2 secretion Anti-CD3/Anti-CD28 stimulation
[12] = Homo sapiens, 1 μM Cbl-b inhibitor, fold change over baseline (anti-CD3/anti-CD28 stimulated T-cells without inhibitor), read-out: CD25 staining Anti-CD3 stimulation

T1 sequence (Q13191 36-427): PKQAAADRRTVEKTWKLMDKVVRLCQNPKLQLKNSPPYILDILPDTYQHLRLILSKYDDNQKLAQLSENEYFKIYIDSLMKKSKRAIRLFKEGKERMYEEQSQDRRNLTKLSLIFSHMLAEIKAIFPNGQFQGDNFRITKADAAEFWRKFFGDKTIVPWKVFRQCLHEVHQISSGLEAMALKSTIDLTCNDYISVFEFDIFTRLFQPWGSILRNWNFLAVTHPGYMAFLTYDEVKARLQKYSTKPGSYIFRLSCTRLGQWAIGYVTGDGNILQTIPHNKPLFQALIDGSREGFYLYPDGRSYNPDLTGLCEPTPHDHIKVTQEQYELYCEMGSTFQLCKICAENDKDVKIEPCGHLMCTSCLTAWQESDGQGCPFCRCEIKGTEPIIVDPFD

| Compound | IC50 [1] [nM] | IC50 [2] [nM] | fold induction at 0.3 µM ([3]; fold change over baseline, 0.3 μM Cbl-b inhibitor, primary human total T-cells, read-out: CD25 staining Anti-CD3/Anti-CD28 stimulation) | fold induction at 1 µM ([3]; fold change over baseline, 1 μM Cbl-b inhibitor, primary human total T-cells, read-out: CD25 staining Anti-CD3/Anti-CD28 stimulation) | fold induction at 4 µM ([3]; fold change over baseline, 4 μM Cbl-b inhibitor, primary human total T-cells, read-out: CD25 staining Anti-CD3/Anti-CD28 stimulation) | fold induction at 0.3 µM ([4]; fold change over baseline, 0.3 μM Cbl-b inhibitor, primary human total T-cells, read-out: IL-2 secretion Anti-CD3/Anti-CD28 stimulation) | fold induction at 1 µM ([4]; fold change over baseline, 1 μM Cbl-b inhibitor, primary human total T-cells, read-out: IL-2 secretion Anti-CD3/Anti-CD28 stimulation) | fold induction at 4 µM ([4]; fold change over baseline, 4 μM Cbl-b inhibitor, primary human total T-cells, read-out: IL-2 secretion Anti-CD3/Anti-CD28 stimulation) | fold induction at 1 µM ([5]; fold change over baseline, 1 μM Cbl-b inhibitor, primary human total T-cells, read-out: CD25 staining Anti-CD3 stimulation) | fold induction at 8 µM ([5]; fold change over baseline, 8 μM Cbl-b inhibitor, primary human total T-cells, read-out: CD25 staining Anti-CD3 stimulation) | fold induction at 0.3 µM [3, 6] | fold induction at 1 µM [3, 6] | fold induction at 0.3 µM [4, 7] | fold induction at 1 µM [4, 7] | fold induction at 1 µM ([5]; Homo sapiens, read-out: CD25 staining, Anti-CD3 stimulation, fold change over baseline) | fold induction at 0.3 µM [3, 8] | fold induction at 1 µM [3, 9] | fold induction at 0.3 µM [4, 10] | fold induction at 1 µM [4, 11] | fold induction at 1 µM [5, 12] |
| --- | --- | --- | --- | --- | --- | --- | --- | --- | --- | --- | --- | --- | --- | --- | --- | --- | --- | --- | --- | --- |
| CNc1cc([C@H](C)Cc2nncn2C)cc(N2Cc3c(cccc3C(F)(F)F)C2=O)n1 [Compound 363, (R)-2-(4-(1-(4-methyl-4H-1,2,4-triazol-3-yl)propan-2-yl)-6-(methylamino)pyridin-2-yl)-4-(trifluoromethyl)isoindolin-1-one] | < 100 | ≤ 100 | 1.01 to 1.3 | 1.01 to 1.3 | 1.31 to 1.5 | 1.01 to 2.5 | 1.01 to 2.5 | 5 to 7.5 | 0.601 to 0.8 | > 1 |  |  |  |  |  |  |  |  |  |  |
| CN1CC2CCC(C1)N2c1cc2c(c(C(F)(F)F)c1)CN(c1cccc(C3(Cc4nncn4C)COC3)c1)C2=O [Compound 386, 2-(3-(3-((4-Methyl-4H-1,2,4-triazol-3-yl)methyl)oxetan-3-yl)phenyl)-6-(3-methyl-3,8-diazabicyclo[3.2.1]octan-8-yl)-4-(trifluoromethyl)isoindolin-1-one] | < 100 | ≤ 100 |  |  |  |  |  |  |  |  | 1.31 to 1.5 | 1.31 to 1.5 | > 7.5 | > 7.5 | > 1 |  |  |  |  |  |
| C[C@H](c1cc2c(c(C(F)(F)F)c1)CN(c1cccc(C3(C(F)(F)c4nncn4C)COC3)c1)C2=O)N1CC[C@H](F)C1 [Example 571, 2-(3-(3-(difluoro(4-methyl-4H-1,2,4-triazol-3-yl)methyl)oxetan-3-yl)phenyl)-6-((R)-1-((S)-3-fluoropyrrolidin-1-yl)ethyl)-4-(trifluoromethyl)isoindolin-1-one] | < 100 | ≤ 100 |  |  |  |  |  |  |  |  |  |  |  |  |  | > 1.76 | > 1.76 | > 7.5 | > 7.5 | > 1 |
| C[C@H](c1cc2c(c(C(F)(F)F)c1)CN(c1cccc(C3([C@@H](F)c4nncn4C)COC3)c1)C2=O)N1CCC2(CC2)C1 [Example 576, 6-((R)-1-(5-azaspiro[2.4]heptan-5-yl)ethyl)-2-(3-(3-((R)-fluoro(4-methyl-4H-1,2,4-triazol-3-yl)methyl)oxetan-3-yl)phenyl)-4-(trifluoromethyl)isoindolin-1-one] | < 100 | ≤ 100 |  |  |  |  |  |  |  |  |  |  |  |  |  | > 1.76 | > 1.76 | > 7.5 | > 7.5 | > 1 |
| Cn1cnnc1CC1(c2cccc(N3Cc4c(cc(CN5CCC(C)(F)CC5)cc4C(F)(F)F)C3=O)c2)COC1 [Example 620, 6-((4-fluoro-4-methylpiperidin-1-yl)methyl)-2-(3-(3-((4-methyl-4H-1,2,4-triazol-3-yl)methyl)oxetan-3-yl)phenyl)-4-(trifluoromethyl)isoindolin-1-one] | < 100 | ≤ 100 |  |  |  |  |  |  |  |  |  |  |  |  |  | 1.31 to 1.5 | 1.31 to 1.5 | > 7.5 | > 7.5 | > 1 |
| C[C@@H]1CN(Cc2cc3c(c(C(F)(F)F)c2)CN(c2cccc(C4(Cc5nncn5C)COC4)c2)C3=O)CCO1 [Example 663b, (R)-2-(3-(3-((4-methyl-4H-1,2,4-triazol-3-yl)methyl)oxetan-3-yl)phenyl)-6-((2-methylmorpholino)methyl)-4-(trifluoromethyl)isoindolin-1-one] | < 100 | ≤ 100 |  |  |  |  |  |  |  |  |  |  |  |  |  | 1.31 to 1.5 | 1.31 to 1.5 | > 7.5 | > 7.5 | > 1 |
| Cn1cnnc1[C@@H](F)C1(c2cccc(N3Cc4c(cc(CN5CCC(F)CC5)cc4C(F)(F)F)C3=O)c2)COC1 [Example 670a, (S)-2-(3-(3-(fluoro(4-methyl-4H-1,2,4-triazol-3-yl)methyl)oxetan-3-yl)phenyl)-6-((4-fluoropiperidin-1-yl)methyl)-4-(trifluoromethyl)isoindolin-1-one] | < 100 | ≤ 100 |  |  |  |  |  |  |  |  |  |  |  |  |  | 1.51 to 1.75 | 1.51 to 1.75 | 5 to 7.5 | > 7.5 | > 1 |
| Cn1cnnc1[C@H](F)C1(c2cccc(N3Cc4c(cc(CN5CCC(F)CC5)cc4C(F)(F)F)C3=O)c2)COC1 [Example 670b, (R)-2-(3-(3-(fluoro(4-methyl-4H-1,2,4-triazol-3-yl)methyl)oxetan-3-yl)phenyl)-6-((4-fluoropiperidin-1-yl)methyl)-4-(trifluoromethyl)isoindolin-1-one] | < 100 | ≤ 100 |  |  |  |  |  |  |  |  |  |  |  |  |  | > 1.76 | > 1.76 | > 7.5 | > 7.5 | > 1 |
